From US8404728B2 (priority 2009, dated 2013)
Counter-ions that a name gives are not always drawn. Like-named read-outs stand apart in the source and are kept apart here.

Experiments:
BoNTAe = BoNTAe (Clostridium botulinum, UniProt P0DPI0); experiment: biochemical; settings: for inhibition at 1 µM: read-out: % inhibition of BoNTAe; for inhibition at 20 µM: inhibitor concentration 20 μM
[1] = biological target: botulinum neurotoxin serotype A (Clostridium botulinum, UniProt P0DPI0); set-up: species or system Balb/c mice; settings: mouse, in vivo, ip
[2] = mouse, in vivo, ip, 2 mg/kg; for AUClast / Cmax / Vd: Balb/c
in vivo = settings: Balb/c, mouse, ip, 2 mg/kg

Sequence of BoNTAe (P0DPI0 2-448 limits assumed): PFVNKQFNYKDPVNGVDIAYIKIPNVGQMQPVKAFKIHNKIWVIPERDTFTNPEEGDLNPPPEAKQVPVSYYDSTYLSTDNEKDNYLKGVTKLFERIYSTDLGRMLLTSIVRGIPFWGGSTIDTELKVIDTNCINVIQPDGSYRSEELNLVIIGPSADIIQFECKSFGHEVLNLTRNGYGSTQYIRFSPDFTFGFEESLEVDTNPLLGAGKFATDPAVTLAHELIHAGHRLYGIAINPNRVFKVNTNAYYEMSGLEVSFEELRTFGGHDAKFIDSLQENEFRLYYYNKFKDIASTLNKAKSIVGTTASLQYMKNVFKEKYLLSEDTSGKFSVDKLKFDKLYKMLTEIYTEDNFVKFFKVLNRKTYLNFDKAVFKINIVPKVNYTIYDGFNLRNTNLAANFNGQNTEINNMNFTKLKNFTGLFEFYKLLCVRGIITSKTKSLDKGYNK
Sequence of botulinum neurotoxin serotype A (P0DPI0 whole entry, looked up): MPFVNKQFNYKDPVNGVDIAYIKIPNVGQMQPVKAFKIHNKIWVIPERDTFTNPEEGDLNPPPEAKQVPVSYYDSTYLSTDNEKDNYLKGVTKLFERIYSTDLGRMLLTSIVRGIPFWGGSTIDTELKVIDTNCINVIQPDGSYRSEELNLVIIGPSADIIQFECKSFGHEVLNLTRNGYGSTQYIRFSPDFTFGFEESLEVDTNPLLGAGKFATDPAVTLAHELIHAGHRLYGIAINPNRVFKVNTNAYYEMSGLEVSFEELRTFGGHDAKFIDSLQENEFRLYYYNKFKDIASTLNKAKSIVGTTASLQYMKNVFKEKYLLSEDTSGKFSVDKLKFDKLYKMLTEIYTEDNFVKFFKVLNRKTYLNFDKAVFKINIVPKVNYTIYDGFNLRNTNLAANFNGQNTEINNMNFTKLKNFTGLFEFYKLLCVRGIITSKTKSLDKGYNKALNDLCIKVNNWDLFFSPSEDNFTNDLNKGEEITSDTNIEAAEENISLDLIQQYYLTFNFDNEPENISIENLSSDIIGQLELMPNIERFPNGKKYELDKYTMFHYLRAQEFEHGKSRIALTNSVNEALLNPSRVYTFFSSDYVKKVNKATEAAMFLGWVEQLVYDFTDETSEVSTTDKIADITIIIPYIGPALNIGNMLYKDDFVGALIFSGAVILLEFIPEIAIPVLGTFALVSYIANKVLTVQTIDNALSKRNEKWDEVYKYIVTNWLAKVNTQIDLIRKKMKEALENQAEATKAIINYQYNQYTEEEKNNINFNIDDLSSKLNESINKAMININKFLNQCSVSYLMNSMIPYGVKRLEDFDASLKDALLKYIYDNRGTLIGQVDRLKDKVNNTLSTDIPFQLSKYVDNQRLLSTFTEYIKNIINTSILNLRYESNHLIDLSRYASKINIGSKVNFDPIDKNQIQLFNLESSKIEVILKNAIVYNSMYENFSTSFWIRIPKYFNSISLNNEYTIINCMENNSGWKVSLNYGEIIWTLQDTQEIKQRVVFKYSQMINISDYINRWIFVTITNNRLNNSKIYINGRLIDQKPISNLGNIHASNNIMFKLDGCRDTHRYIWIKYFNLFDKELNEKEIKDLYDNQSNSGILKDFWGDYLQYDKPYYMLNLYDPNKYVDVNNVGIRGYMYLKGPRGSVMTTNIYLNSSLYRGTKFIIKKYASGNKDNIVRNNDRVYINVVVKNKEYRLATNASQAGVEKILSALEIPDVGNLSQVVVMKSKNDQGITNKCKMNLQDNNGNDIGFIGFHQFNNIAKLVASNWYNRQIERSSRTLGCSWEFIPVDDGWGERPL

## NCCCCCCCCN(CCCCCCCCN)C(=O)c1ccc(-c2cc3ccc(C(=NO)c4cc(CC(=O)NO)c(-c5cccc(O)c5)s4)cc3n2CCCCN)cc1 [Inhibitor E1h]
BoNTAe
  inhibition at 1 µM: 60 ± 1%

## NCCCCCCCN(CCCCCCCN)C(=O)c1cc(CCC(=O)NO)c(CCC(O)(c2ccccc2)c2ccccc2)n1Cc1ccccc1 [Inhibitor E4]
BoNTAe
  Ki: 760 nM
BoNTAe; inhibitor concentration 1 μM
  inhibition at 1 µM: 52 ± 1%

## O=C(CCc1cc(C(=O)Nc2cc(CCCCCCN3C(=O)c4ccccc4C3=O)c(OCCCCCCN3C(=O)c4ccccc4C3=O)c(CCCCCCN3C(=O)c4ccccc4C3=O)c2)n(Cc2ccccc2)c1C#CC(O)(c1ccccc1)c1ccccc1)NO [Inhibitor E6, 1-Benzyl-N-(3,5-bis(6-(1,3-dioxoisoindolin-2-yl)hexyl)-4-(6-(1,3-dioxoisoindolin-2-yl)hexyloxy)phenyl)-5-(3-hydroxy-3,3-diphenylprop-1-ynyl)-4-(3-(hydroxyamino)-3-oxopropyl)-1H-pyrrole-2-carboxamide trifluoroacetic acid salt]
BoNTAe; inhibitor concentration 1 μM
  inhibition at 1 µM: 50 ± 2%

## NCCCCCN(CCCCCN)C(=O)c1ccc(-c2cc3ccc(C(=NO)c4cc(CC(=O)NO)c(-c5cccc(O)c5)s4)cc3n2CCCCN)cc1 [Inhibitor E1g]
BoNTAe
  inhibition at 1 µM: 48%

## NCCCCCCCCCCCN(CCCCCCCCCCCN)C(=O)c1ccc(-c2cc3ccc(C(=O)c4cc(CC(=O)NO)c(-c5cccc(O)c5)s4)cc3n2CCCCN)cc1 [Inhibitor E1d]
BoNTAe
  Ki: 340 nM
  inhibition at 1 µM: 68 ± 1%

## NCCCCn1c(-c2ccccc2)c(F)c2ccc(C(=O)c3cc(CC(=O)NO)c(-c4ccc(O)cc4)s3)cc21 [Inhibitor E2, 2-(5-(1-(4-Aminobutyl)-3-fluoro-2-phenyl-1H-indole-6-carbonyl)-2-(4-hydroxyphenyl)thiophen-3-yl)-N-hydroxyacetamide]
BoNTAe
  inhibition at 20 µM: 82 ± 6%
[1]
  proportion of survivors: significantly (p<0.05) increased the proportion of survivors
[2]
  AUClast: 1386.4 ng·h/mL
  Cmax: 738.4 ng/mL
  Vd: 14.95 L/kg
  T1/2: 6.5
In vivo
  Tmax: 30 min

## NCCCCCCN(CCCCCCN)C(=O)c1ccc(-c2cc3ccc(C(=NO)c4cc(CC(=O)NO)c(-c5cccc(O)c5)s4)cc3n2CCCCN)cc1 [Inhibitor E1f, 4-(1-(4-aminobutyl)-6-((4-(2-(hydroxyamino)-2-oxoethyl)-5-(3-hydroxyphenyl)thiophen-2-yl)(hydroxyimino)methyl)-1H-indol-2-yl)-N,N-bis(6-aminohexyl)benzamide]
BoNTAe; inhibitor concentration 1 μM
  inhibition at 1 µM: 47 ± 1%

## NCCCCCCCCCCCCN(CCCCCCCCCCCCN)C(=O)c1ccc(-c2cc3ccc(C(=O)c4cc(CC(=O)NO)c(-c5cccc(O)c5)s4)cc3n2CCCCN)cc1 [Inhibitor E1e]
BoNTAe
  Ki: 360 nM
  inhibition at 1 µM: 49%

## NCCCCCCCCCOc1c(CCCCCCN)cc(NC(=O)c2cc(CCC(=O)NO)c(CCC(N)(c3ccccc3)c3ccccc3)n2Cc2ccccc2)cc1CCCCCCN [Inhibitor E6c]
BoNTAe
  inhibition at 1 µM: 55 ± 2%

## O=C(CCc1cc(C(=O)Nc2cc(CCCCCCN3C(=O)c4ccccc4C3=O)c(OCCCCCCCN3C(=O)c4ccccc4C3=O)c(CCCCCCN3C(=O)c4ccccc4C3=O)c2)n(Cc2ccccc2)c1C#CC(O)(c1ccccc1)c1ccccc1)NO [Inhibitor E6b, 1-Benzyl-N-(3,5-bis(6-(1,3-dioxoisoindolin-2-yl)hexyl)-4-(7-(1,3-dioxoisoindolin-2-yl)heptyloxy)phenyl)-5-(3-hydroxy-3,3-diphenylprop-1-ynyl)-4-(3-(hydroxyamino)-3-oxopropyl)-1H-pyrrole-2-carboxamide trifluoroacetic acid salt]
BoNTAe; inhibitor concentration 1 μM
  inhibition at 1 µM: 59 ± 2%

## NCCCCCCCN(CCCCCCCN)C(=O)c1cc(CCC(=O)NO)c(CCC(CO)(c2ccccc2)c2ccccc2)n1Cc1ccccc1 [Inhibitor E4b, N,N-Bis(7-aminoheptyl)-1-benzyl-5-(4-hydroxy-3,3-diphenylbutyl)-4-(3-(hydroxyamino)-3-oxopropyl)-1H-pyrrole-2-carboxamide]
BoNTAe
  Ki: 210 nM
BoNTAe; inhibitor concentration 1 μM
  inhibition at 1 µM: 79 ± 1%

## NCCCCCCCCCCN(CCCCCCCCCCN)C(=O)c1ccc(-c2cc3ccc(C(=O)c4cc(CC(=O)NO)c(-c5cccc(O)c5)s4)cc3n2CCCCN)cc1 [Inhibitor E1c, 4-(1-(4-aminobutyl)-6-(4-(2-(hydroxyamino)-2-oxoethyl)-5-(3-hydroxyphenyl)thiophene-2-carbonyl)-1H-indol-2-yl)-N,N-bis(10-aminodecyl)benzamide]
BoNTAe
  Ki: 260 nM
BoNTAe; inhibitor concentration 1 μM
  inhibition at 1 µM: 75 ± 1%

## NCCCCn1c(-c2ccccc2)c(F)c2ccc(C(=O)c3cc(CC(=O)NO)c(-c4cccc(N)c4)s3)cc21 [Inhibitor E3, 2-(5-(1-(4-aminobutyl)-3-fluoro-2-phenyl-1H-indole-6-carbonyl)-2-(3-aminophenyl)thiophen-3-yl)-N-hydroxyacetamide]
BoNTAe
  inhibition at 20 µM: 47 ± 1%
[1]
  proportion of survivors: significantly (p<0.05) increased the proportion of survivors
[2]
  AUClast: 1385.93 ng·h/mL
  Cmax: 255.99 ng/mL
  Vd: 12.84 L/kg
  T1/2: 6.25
In vivo
  Tmax: 60 min
